Row | melting point | Compound
1 | 175 to 176 °C | O=c1ccc2cnc(Nc3ccccc3)nc2n1CCCOc1ccccc1 [Example 87, 8-(3-Phenoxypropyl)-2-phenylamino-8H-pyrido[2,3-d]pyrimidin-7-one]
2 | 155 to 156 °C | Cn1c(=O)ccc2cnc(NCCc3ccccn3)nc21 [Example 66, 8-Methyl-2-(2-pyridin-2-yl-ethylamino)-8H-pyrido[2,3-d]pyrimidin-7-one]
3 | 169 to 170 °C | O=c1ccc2cnc(NC3CCCCC3)nc2n1C1CCCCC1 [Example 153, 8-Cyclohexyl-2-cyclohexylamino-8H-pyrido[2,3-d]pyrimidin-7-one]
4 | 192 °C | O=c1ccc2cnc(Nc3cccc(OC(F)(F)C(F)F)c3)nc2n1C1CC2CCC1C2 (stereo not shown) [Example 213, 8-Bicyclo[2.2.1]hept-2-yl-2-[3-(1,1,2,2-tetrafluoro-ethoxy)-phenylamino]-8H-pyrido[2,3-d]pyrimidin-7-one]
5 | 153 °C | CC(C)n1c(=O)ccc2cnc(N)nc21 [Example 257, 2-Amino-8-isopropyl-8H-pyrido[2,3-d]pyrimidin-7-one]
6 | 226 to 228 °C | CC(C)n1c(=O)ccc2cnc(Nc3ccc(O)cc3)nc21 [Example 112, 2-(4-Hydroxy-phenylamino)-8-isopropyl-8H-pyrido[2,3-d]pyrimidin-7-one]
7 | 155 to 156 °C | CCC(C)n1c(=O)ccc2cnc(Nc3ccccc3)nc21 (stereo not shown) [Example 85, 8-sec-Butyl-2-phenylamino-8H-pyrido[2,3-d]pyrimidin-7-one]
8 | 108 to 109 °C | CCN(CC)c1ccc(Nc2ncc3ccc(=O)n(CC)c3n2)cc1 [Example 78, 2-(4-Diethylamino-phenylamino)-8-ethyl-8H-pyrido[2,3-d]pyrimidin-7-one]
9 | 212 to 213 °C | CN(C)CCCN1CCN(c2ccc(Nc3ncc4ccc(=O)n(C5CC6CCC5C6)c4n3)cc2)CC1 (stereo not shown) [Example 230, 8-Bicyclo[2.2.1]hept-2-yl-2-{4-[4-(3-dimethylamino-propyl)-piperazin-1-yl]-phenylamino}-8H-pyrido[2,3-d]pyrimidin-7-one]
10 | 198 to 199 °C | O=c1ccc2cnc(Nc3ccc(F)cc3)nc2n1C1CCCCCC1 [Example 184, 8-Cycloheptyl-2-(4-fluoro-phenylamino)-8H-pyrido[2,3-d]pyrimidin-7-one]
11 | 85 to 86 °C | O=c1ccc2cnc(Nc3ccc(N4CCCCC4)cc3)nc2n1CCCOC1CCCCO1 (stereo not shown) [Example 158]
12 | 103 to 104 °C | CCn1c(=O)ccc2cnc(NC(C)(C)C)nc21 [Example 46, 2-tert-Butylamino-8-ethyl-8H-pyrido[2,3-d]pyrimidin-7-one]
13 | 135 to 136 °C | CCn1c(=O)ccc2cnc(NC3CCCCC3)nc21 [Example 48, 2-Cyclohexylamino-8-ethyl-8H-pyrido[2,3-d]pyrimidin-7-one]
14 | 155 °C | Nc1ncc2ccc(=O)n(C3CCCCC3)c2n1 [Example 226, 2-Amino-8-cyclohexyl-8H-pyrido[2,3-d]pyrimidin-7-one]
15 | 163 to 164 °C | CCCn1c(=O)ccc2cnc(Nc3ccccc3)nc21 [Example 41, 2-Phenylamino-8-propyl-8H-pyrido[2,3-d]pyrimidin-7-one]
16 | 84 to 85 °C | CCN(CC)CCOc1ccc(Nc2ncc3ccc(=O)n(C(C)C)c3n2)cc1 [Example 59, 2-[4-(2-Diethylaminoethoxy)-phenylamino]-8-isopropyl-8H-pyrido[2,3-d]-pyrimidin-7-one]
17 | 146 to 147 °C | CCCCNc1ncc2ccc(=O)n(C)c2n1 [Example 64, 2-Butylamino-8-methyl-8H-pyrido[2,3-d]pyrimidin-7-one]
18 | 170 to 171 °C | CC(C)n1c(=O)ccc2cnc(Nc3ccccc3)nc21 [Example 43, 8-Isopropyl-2-phenylamino-8H-pyrido[2,3-d]pyrimidin-7-one]
19 | 121 to 122 °C | CCN(CC)CCOc1ccc(Nc2ncc3ccc(=O)n(C4CCCCCC4)c3n2)cc1 [Example 156, 8-Cycloheptyl-2-[4-(2-diethylamino-ethoxy)-phenylamino]-8H-pyrido[2,3-d]pyrimidin-7-one]
20 | 198 to 200 °C | O=c1ccc2cnc(Nc3ccc(N4CCCCC4)cc3)nc2n1C1CCCCC1 [Example 142, 8-Cyclohexyl-2-(4-piperidin-1-yl-phenylamino)-8H-pyrido[2,3-d]pyrimidin-7-one]
21 | 213 to 214 °C | O=c1ccc2cnc(Nc3ccc(N4CCSCC4)cc3)nc2n1C1CCCCC1 [Example 177, 8-Cyclohexyl-2-(4-thiomorpholin-4-yl-phenylamino)-8H-pyrido[2,3-d]pyrimidin-7-one]
22 | 212 to 213 °C | O=c1ccc2cnc(Nc3ccc(N4CCCCC4)cc3)nc2n1CC1CCCCC1 [Example 183, 8-Cyclohexylmethyl-2-(4-piperidin-1-yl-phenylamino)-8H-pyrido[2,3-d]pyrimidin-7-one]

Row | melting point | Compound
23 | 244 to 246 °C | CCNc1nc(Nc2ccccc2)ncc1C=CC#N [Example 72, 3-(4-Ethylamino-2-phenylamino-pyrimidin-5-yl)acrylonitrile]
24 | 234 to 235 °C | O=c1ccc2cnc(Nc3ccc(-n4cccn4)cc3)nc2n1C1CC2CCC1C2 (stereo not shown) [Example 218, 8-Bicyclo[2.2.1]hept-2-yl-2-(4-pyrazol-1-yl-phenylamino)-8H-pyrido[2,3-d]pyrimidin-7-one]
25 | 230 to 231 °C | O=c1ccc2cnc(Nc3ccccc3)nc2n1CC1CCCCC1 [Example 182, 8-Cyclohexylmethyl-2-phenylamino-8H-pyrido[2,3-d]pyrimidin-7-one]
26 | 156 to 158 °C | O=c1ccc2cnc(Nc3ccccc3)nc2n1C1CCCCCC1 [Example 155, 8-Cycloheptyl-2-phenylamino-8H-pyrido[2,3-d]pyrimidin-7-one]
27 | 225 to 226 °C | O=c1ccc2cnc(Nc3ccccc3)nc2n1C1CC2CCC1C2 (stereo not shown) [Example 180, 8-Bicyclo[2.2.1]hept-2-yl-2-phenylamino-8H-pyrido[2,3-d]pyrimidin-7-one]
28 | 96 to 97 °C | CCn1c(=O)ccc2cnc(NCc3ccccc3)nc21 [Example 44, 2-Benzylamino-8-ethyl-8H-pyrido[2,3-d]pyrimidin-7-one]
29 | 231 to 233 °C | CCOC(=O)N1CCC(n2c(=O)ccc3cnc(Nc4ccc(N5CCCCC5)cc4)nc32)CC1 [Example 246, 4-[7-Oxo-2-(4-piperidin-1-yl-phenylamino)-7H-pyrido[2,3-d]pyrimidin-8-yl]-piperidine-1-carboxylic acid ethyl ester]
30 | 185 to 186 °C | O=c1ccc2cnc(Nc3ccc(N4CCC(CCCN5CCOCC5)CC4)cc3)nc2n1C1CC2CCC1C2 (stereo not shown) [Example 217, 8-Bicyclo[2.2.1]hept-2-yl-2-[4-[4-(3-morpholin-4-yl-propyl)-piperidin-1-yl]-phenylamino]-8H-pyrido[2,3-d]pyrimidin-7-one]
31 | 259 to 262 °C | CN1CCN(c2ccc(Nc3ncc4ccc(=O)n(-c5ccccc5)c4n3)cc2)CC1 [Example 113, 2-[4-(4-Methyl-piperazin-1-yl)-phenylamino]-8-phenyl-8H-pyrido[2,3-d]pyrimidin-7-one]
32 | 123 to 124 °C | O=c1ccc2cnc(Nc3cccc(N4CCCCC4)c3)nc2n1C1CCCCCC1 [Example 201, 8-Cycloheptyl-2-(3-piperidin-1-yl-phenylamino)-8H-pyrido[2,3-d]pyrimidin-7-one]
33 | 148 to 150 °C | CCNc1nc(Nc2ccccc2)ncc1C(C)=CC(=O)OCC [Example 73, 3-(4-Ethylamino-2-phenylamino-pyrimidin-5-yl)-but-2-enoic acid ethyl ester]
34 | 119 to 121 °C | CCN(CC)CCOc1ccc(Nc2ncc3ccc(=O)n(C4CCCCC4)c3n2)cc1C [Example 150, 8-Cyclohexyl-2-[4-(2-diethylamino-ethoxy)-3-methyl-phenylamino]-8H-pyrido[2,3-d]pyrimidin-7-one]
35 | 175 to 177 °C | CC1CN(c2ccc(Nc3ncc4ccc(=O)n(C5CCCCC5)c4n3)cc2)CC(C)N1CCO (stereo not shown) [Example 143, 8-Cyclohexyl-2-{4-[4-(2-hydroxy-ethyl)-3,5-dimethyl-piperazin-1-yl]-phenylamino}-8H-pyrido[2,3-d]pyrimidin-7-one]
36 | 144 to 145 °C | CC(C)(C)OC(=O)C1CCCN1c1ccc(Nc2ncc3ccc(=O)n(C4CCCCC4)c3n2)cc1 (stereo not shown) [Example 170, 1-[4-(8-Cyclohexyl-7-oxo-7,8-dihydro-pyrido[2,3-d]pyrimidin-2-ylamino)-phenyl]-pyrrolidine-2-carboxylic acid tert-butyl ester]
37 | 236 to 237 °C | O=c1ccc2cnc(Nc3ccc(N4CCC(CCO)CC4)cc3)nc2n1C1CCCCC1 [Example 216, 8-Cyclohexyl-2-{4-[4-(2-hydroxy-ethyl)-piperidin-1-yl]-phenylamino}-8H-pyrido[2,3-d]pyrimidin-7-one]
38 | 230 to 232 °C | O=c1ccc2cnc(Nc3ccc(N4CCCCC4)cc3)nc2n1C1CCCC1O (stereo not shown) [Example 242, 8-(2-Hydroxy-cyclopentyl)-2-(4-piperidin-1-yl-phenylamino)-8H-pyrido[2,3-d]pyrimidin-7-one]
39 | 215 to 216 °C | COc1ccc(Cn2c(=O)ccc3cnc(Nc4ccccc4)nc32)cc1 [Example 58, 8-(4-Methoxybenzyl)-2-phenylamino-8H-pyrido[2,3-d]pyrimidin-7-one]
40 | 135 to 136 °C | O=c1ccc2cnc(Nc3ccc(N4CCCCC4CO)cc3)nc2n1C1CCCC1 (stereo not shown) [Example 207, 8-Cyclopentyl-2-[4-(2-hydroxymethyl-piperidin-1-yl)-phenylamino]-8H-pyrido[2,3-d]pyrimidin-7-one]
41 | 106 to 107 °C | CCNc1nc(Nc2ccccc2)ncc1CCC(=O)OCC [Example 68, 3-(4-Ethylamino-2-phenylamino-pyrimidin-5-yl)propionic acid ethyl ester]
42 | 197 to 198 °C | O=c1ccc2cnc(Nc3ccc(-n4cccn4)cc3)nc2n1C1CCCC1 [Example 191, 8-Cyclopentyl-2-(4-pyrazol-1-yl-phenylamino)-8H-pyrido[2,3-d]pyrimidin-7-one]
43 | 220 to 222 °C | CCn1c(=O)ccc2cnc(Nc3ccc(-n4cccc4)cc3)nc21 [Example 110, 8-Ethyl-2-(4-pyrrol-1-yl-phenylamino)-8H-pyrido[2,3-d]pyrimidin-7-one]

— patent publication US20040224958A1, “Pyridopyrimidinone derivatives for treatment of neurodegenerative disease” (priority 2000, published 2004)
